Test results reported in patent publication US20110086759A1, “CHEMICAL COMPOUNDS” (SYNGENTA CROP PROTECTION, INC., priority 2007, published 2011).

Tests used:
Assay type in all cases: in vivo
[1] = tested on: Solanum nigrum (SOLNI); experiment: Post-emergence biological efficacy, glasshouse pot test; conditions: 312 h, Rate 1,000 g/ha, post-emergence spray, evaluated after 13 days (100=total damage to plant; 0=no damage to plant), read-out: Percentage damage caused to weed species, post-emergence, SOLNI
Outline: (§1)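 Plants were sown in standard soil and grown 8 days in a glasshouse (24/16° C. day/night, 14 hours light, 65% humidity), then sprayed post-emergence at 1000 or 250 g/ha from acetone/water (50:50) with 0.5% Tween 20. Damage was scored visually after 13 days (0 = none, 100 = total).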

[2] = tested on: Ipomea hederaceae (IPOHE); experiment: as above; conditions: Ipomoea hederacea, 312 h; Rate 1,000 g/ha; post-emergence spray; evaluated after 13 days (100=total damage to plant; 0=no damage to plant); read-out: Percentage damage caused to weed species, post-emergence, IPOHE
Outline: as §1

[3] = tested on: Setaria faberi (SETFA); experiment: as above; conditions: 312 h, Rate 1,000 g/ha, post-emergence spray, evaluated after 13 days (100=total damage to plant; 0=no damage to plant), read-out: Percentage damage caused to weed species, post-emergence, SETFA
Outline: as §1

[4] = tested on: Alopecurus myosuroides (ALOMY); experiment: as above; conditions: 312 h, Rate 1,000 g/ha, post-emergence spray, evaluated after 13 days (100=total damage to plant; 0=no damage to plant), read-out: Percentage damage caused to weed species, post-emergence, ALOMY
Outline: as §1

[5] = tested on: Echinochloa crus-galli (ECHCG); experiment: as above; conditions: 312 h, Rate 1,000 g/ha, post-emergence spray, evaluated after 13 days (100=total damage to plant; 0=no damage to plant), read-out: Percentage damage caused to weed species, post-emergence, ECHCG
Outline: as §1

[6] = tested on: Amaranthus retoflexus (AMARE); experiment: as above; conditions: Amaranthus retroflexus, 312 h; Rate 1,000 g/ha; post-emergence spray; evaluated after 13 days (100=total damage to plant; 0=no damage to plant); read-out: Percentage damage caused to weed species, post-emergence, AMARE
Outline: as §1

[7] = tested on: Solanum nigrum (SOLNI); experiment: Pre-emergence biological efficacy, glasshouse pot test; conditions: 312 h, pre-emergence, rate 1,000 g/ha, evaluated after 13 days (100=total damage to plant; 0=no damage), read-out: Percentage damage caused to weed species, SOLNI
Outline: (§2)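 Seeds sown in standard soil in pots, held one day in glasshouse (24/16 °C day/night, 14 h light, 65% humidity), then sprayed with aqueous solution from acetone/water (50:50) formulation with 0.5% Tween 20 at 1000 or 250 g/ha. Damage scored after 13 days (0 = none, 100 = total).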

[8] = tested on: Ipomea hederaceae (IPOHE); experiment: as above; conditions: Ipomoea hederacea, 312 h; pre-emergence, rate 1,000 g/ha, evaluated after 13 days (100=total damage to plant; 0=no damage); read-out: Percentage damage caused to weed species, IPOHE
Outline: as §2

[9] = tested on: Setaria faberi (SETFA); experiment: as above; conditions: 312 h, pre-emergence, rate 1,000 g/ha, evaluated after 13 days (100=total damage to plant; 0=no damage), read-out: Percentage damage caused to weed species, SETFA
Outline: as §2

[10] = tested on: Alopecurus myosuroides (ALOMY); experiment: as above; conditions: 312 h, pre-emergence, rate 1,000 g/ha, evaluated after 13 days (100=total damage to plant; 0=no damage), read-out: Percentage damage caused to weed species, ALOMY
Outline: as §2

[11] = tested on: Echinochloa crus-galli (ECHCG); experiment: as above; conditions: 312 h, pre-emergence, rate 1,000 g/ha, evaluated after 13 days (100=total damage to plant; 0=no damage), read-out: Percentage damage caused to weed species, ECHCG
Outline: as §2

[12] = tested on: Amaranthus retoflexus (AMARE); experiment: as above; conditions: Amaranthus retroflexus, 312 h; pre-emergence, rate 1,000 g/ha, evaluated after 13 days (100=total damage to plant; 0=no damage); read-out: Percentage damage caused to weed species, AMARE
Outline: as §2

Row | Compound | pest or weed control at 1000 g/ha [1] [%] | pest or weed control at 1000 g/ha [2] [%] | pest or weed control at 1000 g/ha [3] [%] | pest or weed control at 1000 g/ha [4] [%] | pest or weed control at 1000 g/ha [5] [%] | pest or weed control at 1000 g/ha [6] [%] | pest or weed control at 1000 g/ha [7] [%] | pest or weed control at 1000 g/ha [8] [%] | pest or weed control at 1000 g/ha [9] [%] | pest or weed control at 1000 g/ha [10] [%] | pest or weed control at 1000 g/ha [11] [%] | pest or weed control at 1000 g/ha [12] [%]
1 | CCN(Cc1ccco1)c1nc(C2CC2)nc(C(=O)OC)c1Cl [Compound 6-125, 5-Chloro-2-cyclopropyl-4-(N-ethyl-N-furan-2-ylmethyl-amino)-6-methoxycarbonyl-pyrimidine] | 90 | 100 | 90 | 40 | 60 | 100 | 80 | 100 | 30 | 50 | 40 | 90
2 | CCN(Cc1ccc(C)o1)c1nc(C2CC2)nc(C(=O)OC)c1Cl [Compound 6-135, 5-Chloro-2-cyclopropyl-4-[N-ethyl-N-(5-methylfuran-2-ylmethyl)-amino]-6-methoxycarbonyl-pyrimidine] | 90 | 90 | 90 | 30 | 60 | 100 | 80 | 100 | 40 | 40 | 60 | 100
3 | CCN(Cc1cccs1)c1nc(C2CC2)nc(C(=O)OC)c1Cl [Compound 6-140, 5-Chloro-2-cyclopropyl-4-(N-ethyl-N-thiophen-2-ylmethyl-amino)6-methoxycarbonyl-pyrimidine] | 80 | 100 | 70 | 40 | 40 | 100 | 30 | 80 | 0 | 10 | 20 | 80
4 | CCN(Cc1ccc(Br)s1)c1nc(C2CC2)nc(C(=O)OC)c1Cl [Compound 6-142, 4-[N-(5-bromothiophen-2-ylmethyl)-N-ethyl-amino]-5-chloro-2-cyclopropyl-6-methoxycarbonyl-pyrimidine] | 90 | 100 | 90 | 30 | 60 | 100 | 10 | 60 | 10 | 0 | 0 | 50
5 | CCN(Cc1ccnc(C)n1)c1nc(C2CC2)nc(C(=O)OC)c1Cl [Compound 6-161, 5-Chloro-2-cyclopropyl-4-[N-ethyl-N-(2-methylpyrimidin-4-ylmethyl)-amino]-6-methoxycarbonyl-pyrimidine] | 70 | 80 | 30 | 0 | 0 | 70 | 20 | 80 | 0 | 0 | 0 | 100
6 | CCOC(=O)c1nc(C2CC2)nc(NCc2ccccc2)c1Cl [Compound 7-60, 5-chloro-2-cyclopropyl-6-ethoxycarbonyl-4-phenylmethyl-aminopyrimidine] | 90 | 90 | 90 | 30 | 70 | 100 | 90 | 70 | 50 | 30 | 50 | 70
7 | CCOC(=O)c1nc(C2CC2)nc(NCc2ccco2)c1Cl [Compound 7-125, 5-Chloro-2-cyclopropyl-6-ethoxycarbonyl-4-(2-furanylmethyl-amino)pyrimidine] | 90 | 100 | 90 | 90 | 80 | 100 | 100 | 100 | 80 | 60 | 90 | 100
8 | O=C(O)c1nc(-c2ccc(Cl)cc2)nc(NCc2ccco2)c1Cl [Compound 37-125, 5-Chloro-2-(4-chlorophenyl)-4-(furan-2-ylmethylamino)-pyrimidine-6-carboxylic acid] | 100 | 100 | 100 | 70 | 90 | 100 | 100 | 40 | 90 | 50 | 90 | 100
9 | COC(=O)c1nc(-c2ccc(Cl)cc2)nc(NC2CC2)c1Cl [Compound 40-1, 5-Chloro-2-(4-chloro-phenyl)-4-cyclo-propylamino-6-methoxycarbonyl-pyrimidine] | 100 | 70 | 90 | 40 | 50 | 100 | 40 | 30 | 30 | 40 | 50 | 100
10 | COC(=O)c1nc(-c2ccc(Cl)cc2)nc(NCc2ccccc2)c1Cl [Compound 40-60, 5-Chloro-2-(4-chlorophenyl)-6-methoxycarbonyl-4-(phenylmethylamino) pyrimidine] | 70 | 100 | 0 | 0 | 0 | 60 | 30 | 0 | 0 | 20 | 50 | 90
11 | C=Cc1c(NCc2ccco2)nc(-c2ccc(Cl)cc2)nc1C(=O)OC [Compound 67-125, 2-(4-Chlorophenyl)-5-ethenyl-4-(furan-2-ylmethylamino)-6-methoxycarbonyl-pyrimidine] | 90 | 80 | 0 | 30 | 40 | 100 | 20 | 40 | 10 | 50 | 20 | 100
